In PMC6568278 (Chemical Science, 2019):

Legend:
Type in all cases: cell-based
rat aortic VSMCs = assay: PDGF-induced VSMC proliferation; conditions: PDGF-activated rat aortic VSMCs
NF-κB = conditions: HEK-293/NF-κB-luc cells
human umbilical vein ECs = assay: Endothelial cell; conditions: 30 μM

For `COc1ccc(C[C@H]2CO[C@H](c3ccc(OC)c(OC)c3)[C@H]2COC(=O)C=C(C)C)cc1OC` [1b, ((2S,3R,4R)-4-(3,4-Dimethoxybenzyl)-2-(3,4-dimethoxyphenyl)tetrahydrofuran-3-yl)methyl 3-methylbut-2-enoate], which “VSMC proliferation inhibition (in words)” value (rat aortic VSMCs) is on record?
The value was “remained unaffected”.

And the “NF-κB inhibition (in words)” value (NF-κB)?
Its value is “much more suppressive effect”.

`COc1ccc(C[C@H]2CO[C@H](c3ccc(OC)c(OC)c3)[C@H]2COC(=O)CC(C)C)cc1OC` [1c] was tested. Which “VSMC proliferation inhibition (in words)” value (rat aortic VSMCs) did it give?
Its value is “no effect”.

And the “NF-κB inhibition (in words)” value (NF-κB)?
The value was “similarly strong inhibition to 1b”.

Which “NF-κB inhibition (in words)” value (NF-κB) does the source give for `C/C=C(/C)C(=O)OC[C@H]1[C@@H](Cc2ccc(C(F)(F)F)cc2)CO[C@@H]1c1ccc(F)cc1` [1j, (Z)-((2S,3R,4R)-2-(4-Fluorophenyl)-4-(4-(trifluoromethyl)benzyl)tetrahydrofuran-3-yl)methyl 2-methylbut-2-enoate] here?
Its value is “no inhibition”.

What about the “EC proliferation inhibition (in words)” value (human umbilical vein ECs) of the same compound?
The value was “no inhibition”.

What does the source list for `COc1ccc([C@H]2OC[C@H](Cc3ccc(C(C)(C)C)cc3)[C@@H]2CO)cc1OC` [7b, ((2S,3R,4R)-4-(4-(tert-Butyl)benzyl)-2-(3,4-dimethoxyphenyl)tetrahydrofuran-3-yl)methanol]?
VSMC proliferation inhibition (in words) (rat aortic VSMCs): much more active; NF-κB inhibition (in words) (NF-κB): inactive
